Results as given in patent publication US20070271620A1, “Animal model for type II diabetes mellitus and Syndrome X and methods and uses thereof” (priority 2005, published 2007).
Several values for one entry are separate records, joined by “and”; a condition that tells them apart may be missing. Equal entries are not always repeated. Marks after values point to notes of the source that are not given here.

Key:
[1] = test system: cross-bred pigs (Yorkshire×Landrace); assay: Hyperinsulinemic euglycemic/hyperglycemic clamp in STZ diabetic pigs; type: in vivo, pig
Description: Protocol 2: insulin-mediated hepatic glucose production and whole body glucose uptake were studied with the hyperinsulinemic (1 or 2 mU/kg/minute) euglycemic clamp technique in combination with 6,6-^2H-glucose infusion in six normal and seven STZ (130 mg/kg) diabetic pigs.
Protocol 3: insulin-mediated whole body glucose disposal was studied with the hyperinsulinemic (2 or 8 mU/kg/minute) euglycemic clamp technique in six normal and six STZ (150 mg/kg) diabetic pigs.
Protocol 4: insulin-mediated whole body glucose disposal under influence of acute mass action of plasma glucose was studied with the hyperinsulinemic (2 mU/kg/minute), euglycemic (6 mmol/L) and hyperglycemic (22 mmol/L) clamp technique in four STZ (110 mg/kg) diabetic pigs.
After overnight fasting, at t=0 minute, insulin was administered as a prime—(17 or 34 mU/kg) continuous (1 or 2 mU/kg/minute) infusion for three hours in normal pigs. Simultaneously, a variable infusion of a 33% D-glucose solution was started and adjusted every ten minutes to maintain the plasma glucose concentration at euglycemic levels and a 6,6-^2H-glucose solution was given as a prime—(216 mg) continuous (3.6 mg/minute). Steady-state conditions were achieved within 90 minutes after initiation of the hyperinsulinemic clamp and steady-state calculations were carried out during the last hour of the clamp (t=120, 135, 150, 165 and 180 minutes). In hyperglycemic diabetic pigs, insulin was given as a prime—(34 or 136 mU/kg) continuous (2 or 8 mU/kg/minute) infusion for five hours. After reaching euglycemic levels, a variable infusion of a 33% D-glucose solution was started and adjusted every ten minutes to maintain the plasma glucose concentration at euglycemia. At t=2 hours, 6,6-^2H-glucose was administered as a prime— (216 mg) continuous (3.6 mg/minute) infusion for the last three hours of the clamp in diabetic pigs. Steady-state conditions were achieved during the last hour of the clamp and steady-state calculations were carried out at (t=240, 255, 270, 285 and 300 minutes).
Hyperinsulinemic hyperglycemic clamp experiments were carried out in diabetic pigs only. After overnight fasting, insulin was given as a prime—(34 mU/kg) continuous (2 mU/kg/minute) infusion for five hours. Simultaneously, a variable infusion of a 33% D-glucose solution was started and adjusted every ten minutes to maintain the plasma glucose concentration at hyperglycemia. Steady-state calculations were carried out during the last hour of the clamp (t=240, 255, 270, 285 and 300 minutes).
6,6-^2H-glucose kinetics: Fasting and insulin-mediated rate of appearance (Ra) of glucose was calculated by dividing the 6,6-^2H-glucose infusion rate (mg/minute) by the plasma 6,6-^2H-glucose enrichment (mg/mg %). Insulin-mediated hepatic glucose production was calculated as measured Ra glucose minus exogenous glucose infusion rate. Under hyperglycemic conditions, the rate of disappearance (Rd) of glucose, or whole body glucose uptake was corrected for urinary glucose excretion. This implies that whole body glucose uptake was calculated as measured Ra glucose minus urinary glucose excretion.

[2] = test system: cross-bred pigs (Yorkshire×Landrace); assay: Induction of diabetes by streptozotocin infusion in pigs: fasting plasma glucose, food intake, urinary glucose and ketones; type: in vivo, pig
Description: Experimental protocols describing the management, surgical procedures, and animal care were reviewed and approved by the ASG-Lelystad Animal Care and Use Committee (Lelystad, NL). Thirty-six cross-bred pigs (Yorkshire×Landrace) of approximately 30 kg BW at surgery were used in this study. Two weeks before surgery, the pigs were housed in metabolism cages (1.15×1.35 m) and adapted to the fight/dark cycle and the feeding regimen. Lights were on and off at 05:00 and 22:00 hours, respectively. Ambient room temperature was 20° C.
STZ (Pharmacia & Upjohn Company, Kalamazoo, Mich., USA) was dissolved in saline (1 g/10 mL) and administrated to pigs via the jugular vein by a continuous infusion over 30 minutes. STZ treatment (110, 130 or 150 mg/kg) was initiated four to five hours after the morning meal. During the first three days after STZ treatment, food was offered ad libitum in order to avoid hypoglycemia (Gäbel et al., 1985; Grussner et al., 1993). Over the following four days, the food was offered still ad libitum but now from 06:00 to 7:00 and from 15:00 to 16:00 hours to evaluate the food intake capacity in relation to 24-hour urinary glucose excretion of diabetic pigs. This was done first, to be sure that diabetic pigs consume their meals at the iso-energetic level of 1045 kJ ME/kg BW^0.75 per day and second, to underline the importance of iso-energetic feeding when 24-hour urinary glucose excretion is used as one of the parameters to quantify the efficacy of metformin in diabetic pigs. On day 8 post-STZ treatment, pigs were fed on a restricted and iso-energetic level of 1045 kJ ME/kg BW^0.75 per day throughout the study.
Plasma insulin concentration was measured using a Delfia assay (test kit No. B080-1101 by Perkin Elmer Life Sciences, trust by Wallac Oy, Turku, Finland). This specific pig insulin assay was validated using pig insulin standards. Plasma and urine glucose concentrations were analyzed enzymically on an autoanalyzer of Radiometer (ABL and AML, Copenhagen, Denmark). Urine was collected in buckets containing 0.5 grams Halamid-d (sodium-p-toluenesulfonchloramide, Akzo Nobel Chemicals, Amersfoort, NL) to prevent microbial breakdown of glucose. Urine volume was registered over a given interval in order to calculate the rate of urinary glucose excretion. Urine samples (0.5 mL) were stored at −20° C. for later glucose analyses. Ketones (acetoacetic acid) were determined in fresh urine by a reagent strip test (Ketostix, Bayer Diagnostics, Mijdrecht, NL).

[3] = pigs, STZ 110 mg/kg, 2 mU/kg/minute clamp at euglycemia
[4] = pigs, STZ 110 mg/kg, 2 mU/kg/minute clamp at hyperglycemia
[5] = pigs, STZ 110 mg/kg, clamp at hyperglycemia
[6] = pigs, STZ 130 mg/kg, insulin clamp 2 mU/kg/minute
[7] = pigs, STZ 150 mg/kg, insulin clamp 8 mU/kg/minute

SMILES: CN(N=O)C(=O)N[C@H]1C(O)O[C@H](CO)[C@@H](O)[C@@H]1O (mixture of isomers) [STZ, streptozotocin]
- Steady-state glucose infusion rate compared to average in normal pigs ([1]; STZ 150 mg/kg, insulin 8 mU/kg/minute): approximately eight-fold lower
- Fasting plasma insulin compared to normal and diabetic (1.50 mg STZ/kg) pigs ([1]; STZ 110 and 130 mg/kg, on average): two-fold higher
- Steady-state glucose infusion rates compared to average in normal pigs ([1]; STZ 110 to 130 mg/kg, insulin 2 mU/kg/minute): five- to six-fold lower
- Reduction in insulin action ([1]; STZ diabetic pigs): ~75%
- Fasting plasma insulin, range ([1]; diabetic (150 mg STZ/kg) pigs): 0-6 mU/L
- Increase of insulin-mediated whole body glucose disposal at hyperglycemia compared to euglycemia ([1]; pigs, STZ 110 mg/kg, 2 mU/kg/minute clamp): 16%
- Fasting plasma glucose [1, 3]: 22.3 ± 2.1 mmol/L
- Steady-state clamp glucose infusion rate (insulin-mediated whole body glucose disposal) [1, 3]: 5.1 mg/kg/min and 5.1 ± 1.0 mg/kg/min
- Steady-state clamp plasma glucose [1, 3]: 6.0 ± 0.1 mmol/L
- Steady-state clamp plasma insulin [1, 3]: 54 ± 16 mU/L
- Time to reach euglycemia in diabetic pigs [1, 3]: 139 ± 23 min
- Fasting plasma glucose [1, 4]: 23.0 ± 2.4 mmol/L
- Insulin-mediated whole body glucose disposal (glucose infusion rate minus urinary glucose excretion) [1, 4]: 5.9 mg/kg/min and 5.9 ± 0.8 mg/kg/min
- Steady-state clamp glucose infusion rate [1, 4]: 8.2 ± 0.8*^1) mg/kg/minute
- Steady-state clamp plasma glucose [1, 4]: 22.4 ± 2.6 mmol/L
- Steady-state clamp plasma insulin [1, 4]: 62 ± 19 mU/L
- Fasting plasma insulin ([1]; pigs, STZ 110 mg/kg, clamp at euglycemia): 17 ± 13 mU/L
- Fasting plasma insulin [1, 5]: 12 ± 5 mU/L
- Fasting plasma insulin, range [1, 5]: range (3-21) mU/L
- Fasting plasma insulin, range ([1]; pigs, STZ 130 mg/kg): 1-38 mU/L
- Steady-state clamp glucose infusion rate [1, 6]: 5.0 ± 1.4 mg/kg/min
- Steady-state clamp plasma glucose [1, 6]: 6.1 ± 0.8 mmol/L
- Steady-state clamp plasma insulin [1, 6]: 45 ± 5 mU/L
- Time to reach euglycemia in diabetic pigs [1, 6]: 145 ± 22 min
- Fasting plasma glucose ([1]; pigs, STZ 130 mg/kg, insulin clamp 2 mU/kg/minute, with 6,6-2H-glucose infusion, mean ± SEM): 21.7 ± 1.1 mmol/L
- Fasting plasma insulin ([1]; pigs, STZ 130 mg/kg, insulin clamp 2 mU/kg/minute, mean ± SEM): 9 mU/L
- Fasting plasma insulin ([1]; pigs, STZ 130 mg/kg, insulin clamp 2 mU/kg/minute, mean ± SEM, listed as Streptozotocin): 9 ± 7 mU/L
- Fasting plasma insulin, range ([1]; pigs, STZ 130 mg/kg, listed as Streptozotocin): range (1-38) mU/L
- Fasting plasma insulin [1, 7]: 3 ± 1 mU/L
- Steady-state clamp glucose infusion rate [1, 7]: 3.2 ± 1.0 mg/kg/min
- Steady-state clamp plasma glucose [1, 7]: 7.5 ± 0.9 mmol/L
- Steady-state clamp plasma insulin [1, 7]: 228 ± 36 mU/L
- Time to reach euglycemia in diabetic pigs [1, 7]: 243 ± 21 min
- Fasting plasma glucose ([1]; pigs, STZ 150 mg/kg, insulin clamp 8 mU/kg/minute, no tracer): 22.0 ± 0.8 mmol/L
- Overnight fasting plasma glucose compared to normal pigs ([1]; three diabetic pig groups (STZ 110, 130 and 150 mg/kg), on average): four-fold greater
- Pigs with overnight fasting plasma glucose <10 mmol/L (no fasting hyperglycemia) ([2]; STZ 110 mg/kg BW, one week post STZ): two of six
- Diabetic state ([2]; STZ 130 mg/kg): non-ketotic, moderately dyslipidemic, developed severe insulin resistance for glucose metabolism, maintained growth without insulin therapy
- Pigs with fasting hyperglycemia (>10 mmol/L) ([2]; STZ 130 mg/kg): 20 of 23
- Pigs with overnight fasting plasma glucose <10 mmol/L ([2]; STZ 130 mg/kg BW, one week post STZ): three of 23
- Overnight fasting plasma glucose ([2]; STZ 150 mg/kg BW, all six pigs, one week post STZ): > 20 mmol/L
- Diabetic state ([2]; STZ 150 mg/kg, all pigs): clear hyperglycemic, hypoinsulinemic, and ketotic diabetic state
- Fasting urinary glucose excretion (factual) ([2]; STZ diabetic pigs fasted overnight, urine collected for eight hours): 2.3 ± 0.2 mg/kg/min and 2.3 mg/kg/min
- Ketones in urine ([2]; STZ dose of 110 and 130 mg/kg, trace = 0.5 mmol/L): no or trace
- Predicted fasting urinary glucose excretion ([2]; from intercept of linear regression and average body weight): 2.6 mg/kg/min
- Fasting 24-hour urinary glucose excretion (intercept of regression) ([2]; linear regression y=0.33x+141): 141 g per day
